# Experimental data: patent US20140275280A1 (COYOTE PHARMACEUTICALS, INC., priority 2013, published 2014)
# Key:
# [1] = Pharmacological activity of GGA isomers (data of the examples, test not specified); conditions: at low concentrations
# HSP70 [2] = assay: Time course of HSP70 expression by western blot in cortex and hippocampus after oral CNS-102; assay type: in vivo; set-up: HSP70 expression (western blot), treatment average: scale not given here
# Method: The time course of protein expression, as measured by western blot for HSP70, was determined in triplicate for hippocampus, and cortex tissue samples taken from each of 5 animals per group at each of four time points (24, 48, 72, and 96 h) after treatment with either PBS or 12 mg/kg CNS-102, administered orally. The average expression for each treatment group is calculated at each time point for each tissue using PROC MIXED in SAS and are tabulated, along with the difference (delta) between treatment averages and a p-value comparing the difference to zero, below.
# HSP70 [3] = assay: Time course of HSP70 expression by ELISA in select tissues after oral CNS-102; assay type: in vivo, Sprague-Dawley rats; conditions: 12 mg/kg p.o
# Method: CNS-102 at 12 mg/kg or PBS was administered orally to Sprague-Dawley rats and the time course of HSP70 protein expression in tissues, was measured by ELISA. HSP70 protein expression was determined for lung, testicle, spleen, liver, kidney, blood plasma, skin, peripheral blood monocytes, heart, eye, muscle, intestine, and stomach at each of three time points (8 h, 17 h, 24 h).
# mild to moderate IBD = assay: Treatment of inflammatory bowel disease (IBD) in subjects; assay type: in vivo; conditions: daily administration, 12 weeks
# Method: (§1) A pharmaceutical composition comprising GGA or a GGA derivative as described herein is prepared. A subject is diagnosed with mild to moderate IBD. […] Subjects are treated for 12 weeks. Subjects keep daily diaries and record the number and nature of bowel movements. The effect of the treatments is assessed by grading clinical symptoms of fecal blood, mucus, and urgency. In addition, sigmoidoscopic assessment and biopsies are performed, and efficacy of treatment assessed, based on grading of sigmoidoscopic and degree of histological inflammation in rectal biopsy specimens. Safety is assessed based on spontaneous side effect reporting.
# [4] = test system: mild to moderate IBD following gastrectomy; assay: Treatment of IBD in gastrectomized patients; assay type: in vivo; conditions: gastrectomized subjects, daily administration, 12 weeks
# Method: as §1, with “IBD following gastrectomy.” for “IBD.”
# IEC-18 cells = assay: Protection of intestinal epithelial cells from NH2Cl-induced injury; assay type: cell-based, Rat; conditions: pretreatment
# Method: Cell viability is assessed, and endogenous HSP70 levels are determined by enzyme-linked immunosorbent assay in IEC-18 cells.
# DSS-induced colitis = assay: Dextran sulfate sodium (DSS)-induced colitis; assay type: in vivo, BALB/c mice
# Method: BALB/c mice are given 3% DSS solution orally for 7 days to induce colitis. The disease activity of colitis is assessed clinically every day, and histology in the colon is evaluated at 7 days post-DSS. The levels of myeloperoxidase (MPO) activity, tumor necrosis factor (TNF)-alpha and interferon (IFN)-gamma in the colon tissues are also examined. In addition, expression of HSPs 25, 40, 70 and 90 in the colon tissue is determined by Western blot analysis or ELISA. GGA or a GGA derivative is administered orally to mice when treatment of DSS is initiated.
# 90% hepatectomy = assay: Acute liver damage after 90% hepatectomy; assay type: in vivo, Male Wister rats
# Method: Male Wister rats weighing 230-260 g are obtained. After an overnight fast, GGA or a GGA derivative (as an emulsion with 5% gum arabic and 0.004% α-tocophenol) or vehicle (5% gum arabic emulsion with 0.004% α-tocophenol) is intragastrically administrated into rats 4 h prior to the operation. After rats are anesthetized, 90% hepatectomy is performed. Briefly, the left, median, right-upper, and right-lower lobes are removed, leaving the caudate lobes, which represent 10-11% of the original liver mass. Liver specimens and blood samples are collected after laparotomy and exsanguinations under deep anesthesia immediately before (0) and 4,8, 12, and 24 h after the operation. Small pieces of liver tissue are immediately stored in an RNeasy stabilization kit (Qiagen, Hilden, Germany). Sera are immediately separated, and the activities of alanine (ALT) and aspartate (AST) aminotransferases are measured.
# [5] = test system: human hepatoma (Bel-7402) cells; assay: Acetaminophen-induced hepatotoxicity cytotoxicity assay with S9 mixture; assay type: cell-based; conditions: cytotoxic concentration of acetaminophen, vs control conditions
# Method: In order to test the protective activity of GGA and GGA derivatives from acetaminophen-induced hepatotoxicity, a cytotoxicity assay is employed using human hepatoma (Bel-7402) cells in the presence of S9 mixture. Cell viability and mitochondrial permeability transition (MPT) is assessed in the presence or absence of GGA or GGA derivatives in combination with a cytotoxic concentration of acetaminophen.
# HL-1 cardiomyocytes = assay: In vitro ischemia/reperfusion cardiac disease model; assay type: cell-based, murine; conditions: HL-1 cells, nutrient-deficiency medium with 2.5 mM hydrogen peroxide
# Method: Activity is assessed via apoptosis signaling, cell structure and energy-metabolism. The HL-1 cardiomyocytes (murine atrial tumor cell line) are maintained in monolayer culture with Claycomb-medium (Sigma, Germany), Heaving reached confluence and contractile activity, cells are maintained as subcultures. Induction of ischemia was carried out on vital cardiomyocytes at culture day four. The subconfluent, contractile HL-1 cardiomyocytes are placed in nutrient-deficiency medium containing 2.5 mM hydrogen peroxide solution in order to enhance the oxidative stress in HL-1 cells. In control cultures the medium exchange is carried out with standard supplemented Claycomb-medium. 8 h after ischemia induction samples are harvested and revitalization is induced in parallel by replacing nutrient-deficiency medium with fresh Claycomb-medium and incubating cells for another 16 hours. Cell proliferation analysis is done by flow cytometry. Apoptosis analysis is performed by terminal desoxynucleotidyl transferase-mediated dUTP nick end-labeling. Total number of cells are determined using 7-AAD nucleus staining. Additionally formaldehyde-fixed cells on glass coverslips are prepared for immuncytochemical staining.
# [6] = test system: myocardial ischemia and reperfusion; assay: Myocardial ischemia and reperfusion injury; assay type: in vivo, male rats; conditions: once orally 24 h before 30 min ischemia, 4 h of reperfusion
# Method: Lactate dehydrogenase (LDH), creatine kinase (CK), malondialdehyde (MDA), superoxide dismutase (SOD) activity and infarct size are measured.
# [7] = test system: heterotopically transplanted hearts; assay: Heterotopically transplanted hearts; assay type: in vivo, rats; conditions: 24 h after transplantation
# Method: A total of 20 donor rats are randomly divided into 2 groups. One of those receives an oral dose of GGA or a GGA derivative and one is a control group. […] The levels of HSP70 expression in donor hearts and the variation of myocardial enzymes in receptor blood or donor hearts are measured 24 h after transplantation. The donated hearts are also examined under a microscope for pathological changes. HSP70 expression is increase in the GGA-treated group.
# [8] = single oral administration 4 h prior to operation, vs vehicle
smiles,measurement,setting,value
"CC(=O)CC/C=C(/C)CC/C=C(\C)CC/C=C(\C)CCC=C(C)C (single isomer, unassigned) [cis-isomer of GGA, 5Z, 9E, 13E geranylgeranyl acetone]",pharmacological activity and dose-dependent relationship,[1],at best of minimal activity
"CC(=O)CC/C=C(\C)CC/C=C(\C)CC/C=C(\C)CCC=C(C)C (single isomer, unassigned) [trans-isomer of GGA, 5E, 9E, 13E geranylgeranyl acetone]",pharmacological activity and dose-dependent relationship,[1],pharmacologically active and shows a dose-dependent relationship
CC(=O)CC/C=C(\C)CC/C=C(\C)CC/C=C(\C)CCC=C(C)C [CNS-102],"HSP70 expression (western blot), treatment average","HSP70 [2]; cortex, 24 hours after 12 mg/kg oral",−0.016
same,"HSP70 expression (western blot), treatment average","HSP70 [2]; cortex, 48 hours after 12 mg/kg oral",−0.45
same,"HSP70 expression, delta CNS-102 vs PBS","HSP70 [2]; cortex, 48 hours, 12 mg/kg oral, p-value 0.15",0.11
same,"HSP70 expression (western blot), treatment average","HSP70 [2]; cortex, 72 hours after 12 mg/kg oral",0.14
same,"HSP70 expression, delta CNS-102 vs PBS","HSP70 [2]; cortex, 72 hours, 12 mg/kg oral, p-value 0.13",0.13
same,"HSP70 expression (western blot), treatment average","HSP70 [2]; cortex, 96 hours after 12 mg/kg oral",0.04
same,"HSP70 expression, delta CNS-102 vs PBS","HSP70 [2]; cortex, 96 hours, 12 mg/kg oral, p-value 0.09",0.19
same,levels of HSP70 in the cortex after 24 h,"HSP70 [2]; cortex, time points after 24 h, 12 mg/kg oral",No significant levels
same,time of peak HSP70 expression in the hippocampus,"HSP70 [2]; hippocampus, 12 mg/kg oral",> 48 h
same,"HSP70 expression (western blot), treatment average","HSP70 [2]; hippocampus, 24 hours after 12 mg/kg oral",−0.159
same,"HSP70 expression, delta CNS-102 vs PBS","HSP70 [2]; hippocampus, 24 hours, 12 mg/kg oral, p-value 0.16",−0.088
same,"HSP70 expression (western blot), treatment average","HSP70 [2]; hippocampus, 48 hours after 12 mg/kg oral",0.02
same,"HSP70 expression, delta CNS-102 vs PBS","HSP70 [2]; hippocampus, 48 hours, 12 mg/kg oral, p-value 0.14",0.2
same,"HSP70 expression (western blot), treatment average","HSP70 [2]; hippocampus, 72 hours after 12 mg/kg oral",−0.06
same,"HSP70 expression (western blot), treatment average","HSP70 [2]; hippocampus, 96 hours after 12 mg/kg oral",−0.32
same,"HSP70 expression, delta CNS-102 vs PBS","HSP70 [2]; hippocampus, 96 hours, 12 mg/kg oral, p-value 0.07",0.17
same,HSP70 Fold Induction vs. Vehicle Control,"HSP70 [3]; Intestine, 8 h",1.63 fold
same,HSP70 Fold Induction vs. Vehicle Control,"HSP70 [3]; Intestine, 17 h",1.26 fold
same,HSP70 Fold Induction vs. Vehicle Control,"HSP70 [3]; Intestine, 24 h",0.64 fold
same,HSP70 Fold Induction vs. Vehicle Control,"HSP70 [3]; PBMC, 8 h",1.67 fold
same,HSP70 Fold Induction vs. Vehicle Control,"HSP70 [3]; PBMC, 17 h",1.05 fold
same,HSP70 Fold Induction vs. Vehicle Control,"HSP70 [3]; PBMC, 24 h",1.09 fold
same,HSP70 Fold Induction vs. Vehicle Control,"HSP70 [3]; Stomach, 8 h",1.07 fold
same,HSP70 Fold Induction vs. Vehicle Control,"HSP70 [3]; Stomach, 17 h",1.30 fold
same,HSP70 Fold Induction vs. Vehicle Control,"HSP70 [3]; Stomach, 24 h",0.96 fold
same,HSP70 Fold Induction vs. Vehicle Control,"HSP70 [3]; heart, 17 h",1.89 fold
same,HSP70 Fold Induction vs. Vehicle Control,"HSP70 [3]; heart, 24 h",0.60 fold
same,HSP70 Fold Induction vs. Vehicle Control,"HSP70 [3]; kidney, 8 h",1.11 fold
same,HSP70 Fold Induction vs. Vehicle Control,"HSP70 [3]; kidney, 17 h",1.08 fold
same,HSP70 Fold Induction vs. Vehicle Control,"HSP70 [3]; kidney, 24 h",0.92 fold
same,HSP70 Fold Induction vs. Vehicle Control,"HSP70 [3]; liver, 8 h",1.24 fold
same,HSP70 Fold Induction vs. Vehicle Control,"HSP70 [3]; liver, 17 h",1.00 fold
same,HSP70 Fold Induction vs. Vehicle Control,"HSP70 [3]; liver, 24 h",0.89 fold
same,HSP70 Fold Induction vs. Vehicle Control,"HSP70 [3]; plasma, 8 h",0.88 fold
same,HSP70 Fold Induction vs. Vehicle Control,"HSP70 [3]; plasma, 17 h",1.09 fold
same,HSP70 Fold Induction vs. Vehicle Control,"HSP70 [3]; plasma, 24 h",1.05 fold
same,HSP70 Fold Induction vs. Vehicle Control,"HSP70 [3]; spleen, 8 h",0.64 fold
same,HSP70 Fold Induction vs. Vehicle Control,"HSP70 [3]; spleen, 17 h",1.09 fold
same,HSP70 Fold Induction vs. Vehicle Control,"HSP70 [3]; spleen, 24 h",1.04 fold
same,HSP70 Fold Induction vs. Vehicle Control,"HSP70 [3]; testicle, 8 h",1.10 fold
same,HSP70 Fold Induction vs. Vehicle Control,"HSP70 [3]; testicle, 17 h",1.03 fold
same,HSP70 Fold Induction vs. Vehicle Control,"HSP70 [3]; testicle, 24 h",0.94 fold
"CC(=O)CC/C=C(\C)CC/C=C(\C)CC/C=C(\C)CCC=C(C)C [GGA, Geranylgeranyl acetone]",efficacy in inflammatory bowel disease (treating the condition and maintaining remission),mild to moderate IBD,demonstrate efficacy
same,efficacy in inflammatory bowel disease (treating the condition and maintaining remission),[4],demonstrate efficacy
same,HSP70 levels (ELISA),IEC-18 cells,rapidly elevates HSP70 levels
same,protection against NH2Cl-induced injury (cell viability),IEC-18 cells,protects against NH2Cl-induced injury
same,expression of HSP70 in the colon,DSS-induced colitis; mice given DSS,enhances
same,clinical severity of colitis,"DSS-induced colitis; oral, 3% DSS for 7 days",significantly reduces
same,level of IFN-gamma in the colon,"DSS-induced colitis; oral, 3% DSS for 7 days",suppresses
same,level of MPO activity in the colon,"DSS-induced colitis; oral, 3% DSS for 7 days",suppresses
same,level of TNF-alpha in the colon,"DSS-induced colitis; oral, 3% DSS for 7 days",suppresses
same,"chaperone induction in liver (gene expression and immunoblot): HSP70, HSP27, BIP",90% hepatectomy; after 90% hepatectomy,"induce an endoplasmic reticulum chaperone, BIP"
same,"release of aminotransferases (ALT, AST)",90% hepatectomy; [8],significantly suppresses
same,survival,90% hepatectomy; [8],improves survival
same,cell viability,[5],increased cell viability
same,ischemia induced apoptosis (TUNEL),HL-1 cardiomyocytes,reduce ischemia induced apoptosis
same,ischemia-induced reduction of cell proliferation,HL-1 cardiomyocytes,rescue ischemia-induced reduction of cell proliferation
same,decrease in SOD levels,[6],significantly inhibits
same,increase in MDA levels,[6],significantly inhibits
same,infarct size,[6],significantly reduces
same,level of CK,[6],significantly reduces
same,level of LDH,[6],significantly reduces
same,Lactate dehydrogenase concentration in receptor blood,[7]; vs control group,decreased
same,atriphosphate concentration,[7]; vs control group,higher
same,creatine kinase muscle band concentration in receptor blood,[7]; vs control group,decreased
same,malondialdehyde concentration,[7]; vs control group,lower
same,HSP70 expression in donor hearts,[7]; oral dose to donor 24 h before transplantation,increase
